Test results: patent US20240293413A1, “COMPOUND AND METHOD FOR TREATING CHEMOTHERAPY-RELATED GASTROINTESTINAL SIDE EFFECTS” (ONQUALITY PHARMACEUTICALS CHINA LTD., priority 2021, published 2024)

Columns and labels:
Assay type in all cases: in vivo
[1] = system: diarrhea caused by a chemotherapeutic agent in Balb/c mice; assay: Examples 343-381 (Table 6): oral versus intravenous CDK inhibitor, relief of diarrhea caused by a chemotherapeutic agent; details: for Relative remission rate: Example 369, Topotecan (TP) intramuscular injection 10 mg/kg single, 12 h before, cycle 10 days;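 for Relative remission rate: percent of treated mice whose diarrhea grade fell below chemotherapy-group average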
Description: Balb/c mice were fed for 1 week, and then divided into groups. The experiment was divided into a control group, a chemotherapeutic agent group, and an oral administration group of a CDK inhibitor, and an intravenous injection group of a CDK inhibitor, each of which comprised 10 mice, to perform the administration experiment, for which the administration dosage, mode, time and frequency were shown in Table 6. The control group: being injected/intragastrically administered with the same solvent as that used in the CDK inhibitor group (the time was shown in Table 6), and then being injected/intragastrically administered with the same solvent as that used in the chemotherapeutic agent group (the administration mode was shown in Table 6): the chemotherapeutic agent group: being injected/intragastrically administered with the same solvent as that used in the CDK inhibitor group (the time was shown in Table 6), and then being injected/intragastrically administered with the chemotherapeutic agent (the type, administration mode and dosage were shown in Table 6): the oral administration group of the CDK inhibitor: being intragastrically administered with the CDK inhibitor (the time was shown in Table 6), and then being administered with the chemotherapeutic agent (the mode and dosage were shown in Table 6): the intravenous injection group of the CDK inhibitor: being injected with the CDK inhibitor through tail vein (the time was shown in Table 6), and then being administered with the chemotherapeutic agent (the mode and dosage were shown in Table 6).
(§1) The diarrhea grading of mice was observed and recorded every day.

[2] = system: Chemotherapeutic agent-caused diarrhea models of Balb/c mice; assay: Examples 1-229 (Table 3): oral CDK inhibitor, relief of diarrhea caused by a chemotherapeutic agent;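 note: percent of treated mice whose diarrhea grade fell below chemotherapy-group average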
Description: Construction of mouse animal models: Chemotherapeutic agent-caused diarrhea models of Balb/c mice were constructed according to the administration mode and frequency of the chemotherapeutic agent as shown in Table 3.
Balb/c mice were fed for 1 week, and then divided into groups. The experiment was divided into a control group, a chemotherapeutic agent group, and a CDK inhibitor group, each of which comprised 10 mice, to perform the administration experiment, for which the administration dosage, mode, time and frequency were shown in Table 3. The control group: being intragastrically administered with the same solvent as that used in the CDK inhibitor group (the time was shown in Table 3), and then being injected/intragastrically administered with the same solvent as that used in the chemotherapeutic agent group (the administration mode was shown in Table 3): the chemotherapeutic agent group: being intragastrically administered with the same solvent as that used in the CDK inhibitor group (the time was shown in Table 3), and then being injected/intragastrically administered with the chemotherapeutic agent (the type, administration mode and dosage were shown in Table 3); the CDK inhibitor group: being intragastrically administered with the CDK inhibitor (the time was shown in Table 3), and then being administered with the chemotherapeutic agent (the mode and dosage were shown in Table 3).
as §1

[3] = system: Chemotherapeutic agent-caused constipation models of Balb/c mice; assay: Examples 272-342 (Table 5): oral CDK inhibitor, relief of constipation caused by a chemotherapeutic agent; details: cycle 8 days;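 note: percent of treated mice relieved versus chemotherapy group by feces reduction rate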
Description: Construction of mouse animal models: Chemotherapeutic agent-caused constipation models of Balb/c mice were constructed according to the administration mode and frequency of the chemotherapeutic agent as shown in Table 5.
Balb/c mice were fed for 1 week, and then divided into groups. The experiment was divided into a control group, a chemotherapeutic agent group, and a CDK inhibitor group, each of which comprised 10 mice, to perform the administration experiment, for which the administration dosage, mode, time and frequency were shown in Table 5. The control group: being intragastrically administered with the same solvent as that used in the CDK inhibitor group (the time was shown in Table 5), and then being injected/intragastrically administered with the same solvent as that used in the chemotherapeutic agent group (the administration mode was shown in Table 5): the chemotherapeutic agent group: being intragastrically administered with the same solvent as that used in the CDK inhibitor group (the time was shown in […]), and then being injected/intragastrically administered with the chemotherapeutic agent (the type, administration mode and dosage were shown in Table 5): the CDK inhibitor group: being intragastrically administered with the CDK inhibitor (the time was shown in Table 5), and then being administered with the chemotherapeutic agent (the mode and dosage were shown in Table 5).
Feces reduction rate (%)=(the control group−the chemotherapeutic agent group or the CDK inhibitor group)/the control group*100%
The feces amount of mice within 3 hours was observed and recorded every day.

CN[C@@H]1C[C@H]2O[C@@](C)([C@@H]1OC)n1c3ccccc3c3c4c(c5c6ccccc6n2c5c31)C(=O)N[C@H]4O [KRX-0601]
Relative remission rate ([1]; CDK inhibitor intravenous injection 250 mg/kg single): 10% | Relative remission rate ([1]; CDK inhibitor oral 250 mg/kg single): 20% | relief of diarrhea by oral administration and injection administration ([1]; diarrhea caused by etoposide, etoposide in combination with cisplatin, carboplatin, gemcitabine, gemcitabine in combination with carboplatin, and topotecan, oral administration has the most significant effect): effectively relieve diarrhea | Relative remission rate (%) ([2]; Example 165, Docetaxel (DTX) oral administration 30 mg/kg single, CDK inhibitor oral 250 mg/kg single 3 h before, cycle 8 days): 10% | Relative remission rate ([3]; Example 334, Cytarabine (Ara-C) intramuscular injection 600 mg/kg single, CDK inhibitor oral 40 mg/kg single, 12 h before): 10%

CC(C)N1CCN(c2ccc(Nc3ncc4cc5n(c4n3)C3(CCCCC3)CNC5=O)nc2)CC1 [G1T38]
Relative remission rate (%) ([2]; Example 40, Fluorouracil (5-Fu) intraperitoneal injection 125 mg/kg single, CDK inhibitor oral 150 mg/kg single 1 h before, cycle 10 days): 20% | Relative remission rate (%) ([2]; Example 41, Fluorouracil (5-Fu) intraperitoneal injection 125 mg/kg single, CDK inhibitor oral 150 mg/kg single 4 h before, cycle 10 days): 40% | Relative remission rate (%) ([2]; Example 42, Fluorouracil (5-Fu) intraperitoneal injection 125 mg/kg single, CDK inhibitor oral 150 mg/kg single 8 h before, cycle 10 days): 70% | Relative remission rate (%) ([2]; Example 43, Fluorouracil (5-Fu) intraperitoneal injection 125 mg/kg single, CDK inhibitor oral 150 mg/kg single 16 h before, cycle 10 days): 50% | Relative remission rate (%) ([2]; Example 79, Oxaliplatin intraperitoneal injection 20 mg/kg single, CDK inhibitor oral 150 mg/kg single 1 h before, cycle 8 days): 20% | Relative remission rate (%) ([2]; Example 80, Oxaliplatin intraperitoneal injection 20 mg/kg single, CDK inhibitor oral 150 mg/kg single 2 h before, cycle 8 days): 40% | Relative remission rate (%) ([2]; Example 81, Oxaliplatin intraperitoneal injection 20 mg/kg single, CDK inhibitor oral 150 mg/kg single 4 h before, cycle 8 days): 40% | Relative remission rate (%) ([2]; Example 82, Oxaliplatin intraperitoneal injection 20 mg/kg single, CDK inhibitor oral 150 mg/kg single 8 h before, cycle 8 days): 70% | Relative remission rate (%) ([2]; Example 83, Oxaliplatin intraperitoneal injection 20 mg/kg single, CDK inhibitor oral 150 mg/kg single 12 h before, cycle 8 days): 70% | Relative remission rate (%) ([2]; Example 84, Oxaliplatin intraperitoneal injection 20 mg/kg single, CDK inhibitor oral 150 mg/kg single 16 h before, cycle 8 days): 50% | Relative remission rate (%) ([2]; Example 125, Irinotecan (CPT-11) intraperitoneal injection 240 mg/kg single, CDK inhibitor oral 150 mg/kg single 4 h before, cycle 7 days): 50% | Relative remission rate (%) ([2]; Example 126, Irinotecan (CPT-11) intraperitoneal injection 240 mg/kg single, CDK inhibitor oral 150 mg/kg single 6 h before, cycle 7 days): 60% | Relative remission rate (%) ([2]; Example 128, Irinotecan (CPT-11) intramuscular injection 240 mg/kg single, CDK inhibitor oral 150 mg/kg single 2 h before, cycle 7 days): 50% | Relative remission rate (%) ([2]; Example 163, Docetaxel (DTX) intraperitoneal injection 10 mg/kg single, CDK inhibitor oral 150 mg/kg single 8 h before, cycle 8 days): 70% | Relative remission rate (%) ([2]; Example 164, Docetaxel (DTX) intraperitoneal injection 10 mg/kg single, CDK inhibitor oral 150 mg/kg single 12 h before, cycle 8 days): 60% | Relative remission rate (%) ([2]; Example 211, Carboplatin 5 mg/kg and paclitaxel 10 mg/kg intraperitoneal injection single, CDK inhibitor oral 150 mg/kg single, 8 h before, 10 days): 40% | Relative remission rate (%) ([2]; Example 212, Carboplatin 5 mg/kg and paclitaxel 10 mg/kg intraperitoneal injection single, CDK inhibitor oral 150 mg/kg single, 12 h before, 10 days): 70%

CNC(=O)c1nn(C)c2c1C(C)(C)Cc1cnc(Nc3ccc(N4CCN(C)CC4)cc3)nc1-2 [Milciclib]
Relative remission rate (%) ([2]; Example 194, Gemcitabine 60 mg/kg and paclitaxel 10 mg/kg intraperitoneal injection single, CDK inhibitor oral 60 mg/kg single, 2 h before, 8 days): 40% | Relative remission rate ([3]; Example 315, Docetaxel (DTX) intraperitoneal injection 15 mg/kg single, CDK inhibitor oral 60 mg/kg single, 0.5 h before): 30% | Relative remission rate ([3]; Example 316, Docetaxel (DTX) intraperitoneal injection 15 mg/kg single, CDK inhibitor oral 60 mg/kg single, 4 h before): 20% | Relative remission rate ([3]; Example 317, Docetaxel (DTX) intraperitoneal injection 15 mg/kg single, CDK inhibitor oral 60 mg/kg single, 8 h before): 20% | Relative remission rate ([3]; Example 318, Docetaxel (DTX) intraperitoneal injection 15 mg/kg single, CDK inhibitor oral 60 mg/kg single, 12 h before): 30% | Relative remission rate ([3]; Example 319, Docetaxel (DTX) intraperitoneal injection 15 mg/kg single, CDK inhibitor oral 60 mg/kg single, 24 h before): 10% | Relative remission rate ([3]; Example 320, Docetaxel (DTX) intraperitoneal injection 15 mg/kg single, CDK inhibitor oral 60 mg/kg single, 48 h before): 0%

Nc1nccc(-c2ccc(O)c(-c3ccnc(N)n3)n2)n1 [BEY-1107]
Relative remission rate (%) ([2]; Example 154, Docetaxel (DTX) intraperitoneal injection 10 mg/kg single, CDK inhibitor oral 150 mg/kg single 8 h before, cycle 8 days): 40% | Relative remission rate (%) ([2]; Example 216, Fluorouracil 100 mg/kg and irinotecan 200 mg/kg intravenous injection single, CDK inhibitor oral 150 mg/kg single, 2 h before, 10 days): 30%

CC1CCC(n2c3cnccc3c3cnc(Nc4ccc5c(n4)CCN(C(=O)CO)C5)nc32)CC1 (stereo not shown) [FLX-925]
Relative remission rate (%) ([2]; Example 27, Fluorouracil (5-Fu) intraperitoneal injection 125 mg/kg single, CDK inhibitor oral 75 mg/kg single 4 h before, cycle 10 days): 50% | Relative remission rate (%) ([2]; Example 69, Oxaliplatin intraperitoneal injection 20 mg/kg single, CDK inhibitor oral 75 mg/kg single 4 h before, cycle 8 days): 60% | Relative remission rate (%) ([2]; Example 85, Oxaliplatin intravenous injection 17.5 mg/kg single, CDK inhibitor oral 75 mg/kg single 6 h before, cycle 8 days): 60% | Relative remission rate (%) ([2]; Example 114, Irinotecan (CPT-11) intramuscular injection 250 mg/kg single, CDK inhibitor oral 75 mg/kg single 4 h before, cycle 7 days): 50%

Cl.Cl.Cl.Cl.OC[C@@H](O)[C@@H](CO)N1CCNCCNCCNCC1 [CS-3002]
Relative remission rate (%) ([2]; Example 149, Docetaxel (DTX) intraperitoneal injection 10 mg/kg single, CDK inhibitor oral 200 mg/kg single 4 h before, cycle 8 days): 70% | Relative remission rate (%) ([2]; Example 223, Fluorouracil 100 mg/kg and oxaliplatin 10 mg/kg intraperitoneal injection single, CDK inhibitor oral 200 mg/kg single, 2 h before, 10 days): 50%

FN-1501
Relative remission rate (%) ([2]; Example 36, Fluorouracil (5-Fu) intraperitoneal injection 125 mg/kg single, CDK inhibitor oral 200 mg/kg single 6 h before, cycle 10 days): 60% | Relative remission rate (%) ([2]; Example 156, Docetaxel (DTX) intraperitoneal injection 10 mg/kg single, CDK inhibitor oral 200 mg/kg single 10 h before, cycle 8 days): 60% | Relative remission rate (%) ([2]; Example 169, Docetaxel (DTX) intravenous injection 10 mg/kg single, CDK inhibitor oral 200 mg/kg single 8 h before, cycle 8 days): 50%
